Source: patent publication US20260286302A1, “METHODS FOR PRODUCING A SUPER CENTRAL MEMORY CD8 T CELL SUBTYPE BY POLY(ADP-RIBOSE) POLYMERASE (PARP) INHIBITION AND USES THEREOF” (Georgetown University, priority 2023, published 2026)

Tests used:
pMel-1 CD8 T cells = type: cell-based; details: gp100-activated; for percentage of CD44hiCD62Lhi TCM CD8 T cell population: 48 h of treatment, for PARPi concentration-dependent
Method: For ACT experiments, CD8+ T cells from pMel-1 mice were activated with gp100 peptide with and without PARPi for 48 h. Based on their CD44 and CD62L expression, cells were sorted by FACS and transferred into 9-day-old B16F10 melanoma-bearing mice tumor-bearing mice (1×10^6 cells per mouse). Tumor growth and survival of mice were monitored.
A total of 0.1-0.2×10^6 cells per sample were stained for Live/Dead staining followed by fixation and permeabilization. […] CD8^+ T cells from tumor samples were stained similarly. Data acquisition was performed on a BD LSR II flow cytometer using the software FACS Diva v.9.0. Results were analyzed using FlowJo software (TreeStar). […]

human CD8 T cells = assay: In vitro-activated human CD8+ T cells, memory characteristics; type: cell-based; details: anti-CD3/CD28 coupled beads for 72 h
Method: For evaluation of memory characteristics in human CD8+ T cells, naive CD8+ T cells were activated in the presence or absence of PARPi, by Dynabeads™ Human T-Activator CD3/CD28 (Thermo Fisher #11131), […]. Post-activation cells were gated upon CD8^+ T cell population and various characteristics were investigated as described in the Examples below.
A total of 0.1-0.2×10^6 cells per sample were stained for Live/Dead staining followed by fixation and permeabilization. For IFNγ and granzyme B (Gzm B) staining, BD Cytofix/Cytoperm (catalog no. 51-2090KZ) and BD Perm/Wash (catalog no. 51-2091KZ) buffer set were used according to the manufacturer's instructions (BD Pharmingen). CD8^+ T cells from tumor samples were stained similarly. Data acquisition was performed on a BD LSR II flow cytometer using the software FACS Diva v.9.0. Results were analyzed using FlowJo software (TreeStar). MitoFM, a green-fluorescent mitochondrial stain, which localizes to mitochondria, was used as described previously (Sukumar et al., Cell Metab 23 (1): 63-76, 2016).
To this end, human naïve CD8 T cells were activated with anti-CD3/CD28 coupled beads for 72 h.

Row | SMILES | percentage of CD44hiCD62Lhi TCM CD8 T cell population (pMel-1 CD8 T cells) | expression of IFNγ and Gzm B in CD44hiCD62Lhi CD8 T cells (pMel-1 CD8 T cells; 48 h) | IFNγ expression (human CD8 T cells) | number of CD45ROhiCCR7hi cells (human CD8 T cells) | number of CD45ROhiCD62Lhi cells (human CD8 T cells)
1 | NC(=O)c1cccc2cn(-c3ccc([C@@H]4CCCNC4)cc3)nc12 [Niraparib] | significantly increased |  |  |  | 
2 | Cn1ncnc1[C@H]1c2n[nH]c(=O)c3cc(F)cc(c23)N[C@@H]1c1ccc(F)cc1 [Talazoparib] | significantly increased | significantly increased | significant increase | significant increase | significant increase
